As usually defined, the IC50 is the concentration needed to halve the response being measured.

In the test the target is T1, Recombinant human renin (Homo sapiens, UniProt P00797).
T1 construct: isolate the active form (residues 67-406); made in house; host or cells: FreeStyle 293-F cells (transient expression of pcDNA3.1(+)/hREN)
T1 sequence (P00797 67-406): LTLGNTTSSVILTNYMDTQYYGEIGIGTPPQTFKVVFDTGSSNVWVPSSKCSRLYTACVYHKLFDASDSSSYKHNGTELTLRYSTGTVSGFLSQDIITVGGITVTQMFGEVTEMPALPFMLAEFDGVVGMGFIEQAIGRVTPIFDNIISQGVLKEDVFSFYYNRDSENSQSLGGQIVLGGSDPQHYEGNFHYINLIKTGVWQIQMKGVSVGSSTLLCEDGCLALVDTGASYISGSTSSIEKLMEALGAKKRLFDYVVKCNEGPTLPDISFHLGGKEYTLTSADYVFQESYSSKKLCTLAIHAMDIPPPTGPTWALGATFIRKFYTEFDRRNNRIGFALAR
As to the kind of experiment: In vitro enzymatic activity assay of renin inhibitors (fluorogenic peptide substrate). The class given is biochemical. The conditions noted are these: read-out: IC50 of Exemplified Compounds Against Renin. Summed up:
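Recombinant human renin (3 nM final) pre-incubated 10 min at 37 °C with compounds in pH 7.4 Hepes/EDTA/DTT/0.1 mg/mL BSA/Brij35 buffer (optionally plus 2% BSA), 5% DMSO final; fluorogenic QXL520/HiLyteFluo488 peptide substrate added.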
In the case of `COCCCn1c([C@@H]2CCCN(C(=O)C[C@H](N)Cc3ccc(-c4ccc(NC(=O)N(C)C)cc4)cc3)C2)nc2ccccc21` [Compound 174, 3-(4′-((R)-2-amino-4-((R)-3-(1-(3-methoxypropyl)-1H-benzo[d]imidazol-2-yl)piperidin-1-yl)-4-oxobutyl)biphenyl-4-yl)-1,1-dimethylurea], the IC50 was < 100 nM. Take `CNC(=O)Nc1ccc(-c2ccc(C[C@@H](N)CC(=O)N3CCC[C@@H](c4nc5ccccc5n4CCCOC)C3)cc2)cc1` [Compound 175, 1-(4′-((R)-2-amino-4-((R)-3-(1-(3-methoxypropyl)-1H-benzo[d]imidazol-2-yl)piperidin-1-yl)-4-oxobutyl)biphenyl-4-yl)-3-methylurea]: the IC50 was < 100 nM.

For the compound `COCCCn1c([C@@H]2CCCN(C(=O)C[C@H](N)Cc3ccc(-c4ccc(NC(=O)OC)cc4)cc3)C2)nc2ccccc21` [Compound 176, methyl 4′-((R)-2-amino-4-((R)-3-(1-(3-methoxypropyl)-1H-benzo[d]imidazol-2-yl)piperidin-1-yl)-4-oxobutyl)biphenyl-4-ylcarbamate], the half-maximal inhibitory concentration (IC50) was < 100 nM. On to `COCCCn1c([C@@H]2CCCN(C(=O)C[C@H](N)Cc3ccc(-c4ccc(C(=O)NCCOC)cc4)cc3)C2)nc2ccccc21` [Compound 177, 4′-((R)-2-amino-4-((R)-3-(1-(3-methoxypropyl)-1H-benzo[d]imidazol-2-yl)piperidin-1-yl)-4-oxobutyl)-N-(2-methoxyethyl)biphenyl-4-carboxamide], for which the half-maximal inhibitory concentration (IC50) was < 100 nM. For the compound `CCOCCNC(=O)c1ccc(-c2ccc(C[C@@H](N)CC(=O)N3CCC[C@@H](c4nc5ccccc5n4CCCOC)C3)cc2)cc1` [Compound 178, 4′-((R)-2-amino-4-((R)-3-(1-(3-methoxypropyl)-1H-benzo[d]imidazol-2-yl)piperidin-1-yl)-4-oxobutyl)-N-(2-ethoxyethyl)biphenyl-4-carboxamide], the IC50 is < 100 nM. In the case of `COCCCn1c([C@@H]2CCCN(C(=O)C[C@H](N)Cc3ccc(-c4ccc(C(=O)NCCOC(C)C)cc4)cc3)C2)nc2ccccc21` [Compound 179, 4′-((R)-2-amino-4-((R)-3-(1-(3-methoxypropyl)-1H-benzo[d]imidazol-2-yl)piperidin-1-yl)-4-oxobutyl)-N-(2-isopropoxyethyl)biphenyl-4-carboxamide], the IC50 was < 100 nM.

On to `COCCCNC(=O)c1ccc(-c2ccc(C[C@@H](N)CC(=O)N3CCC[C@@H](c4nc5ccccc5n4CCCOC)C3)cc2)cc1` [Compound 180, 4′-((R)-2-amino-4-((R)-3-(1-(3-methoxypropyl)-1H-benzo[d]imidazol-2-yl)piperidin-1-yl)-4-oxobutyl)-N-(3-methoxypropyl)biphenyl-4-carboxamide], for which the IC50 was < 100 nM. With `COCCCn1c([C@@H]2CCCN(C(=O)C[C@H](N)Cc3ccc(-c4ccc(C(=O)NCC(O)CO)cc4)cc3)C2)nc2ccccc21` (stereo partly drawn) [Compound 181, 4′-((R)-2-amino-4-((R)-3-(1-(3-methoxypropyl)-1H-benzo[d]imidazol-2-yl)piperidin-1-yl)-4-oxobutyl)-N-(2,3-dihydroxypropyl)biphenyl-4-carboxamide] the figure was < 100 nM.

For the compound `COCCCn1c([C@@H]2CCCN(C(=O)C[C@H](N)Cc3ccc(-c4ccc(C(=O)NCCO)cc4)cc3)C2)nc2ccccc21` [Compound 182, 4′-((R)-2-amino-4-((R)-3-(1-(3-methoxypropyl)-1H-benzo[d]imidazol-2-yl)piperidin-1-yl)-4-oxobutyl)-N-(2-hydroxyethyl)biphenyl-4-carboxamide], the IC50 was < 100 nM. On to `COCCCn1c([C@@H]2CCCN(C(=O)C[C@H](N)Cc3ccc(-c4ccc(C(=O)NC(C)(C)CO)cc4)cc3)C2)nc2ccccc21` [Compound 183, 4′-((R)-2-amino-4-((R)-3-(1-(3-methoxypropyl)-1H-benzo[d]imidazol-2-yl)piperidin-1-yl)-4-oxobutyl)-N-(1-hydroxy-2-methylpropan-2-yl)biphenyl-4-carboxamide], for which the IC50 is < 100 nM. With `COCCCn1c([C@@H]2CCCN(C(=O)C[C@H](N)Cc3ccc(-c4ccc(C(=O)NC(CO)CO)cc4)cc3)C2)nc2ccccc21` [Compound 184, 4′-((R)-2-amino-4-((R)-3-(1-(3-methoxypropyl)-1H-benzo[d]imidazol-2-yl)piperidin-1-yl)-4-oxobutyl)-N-(1,3-dihydroxypropan-2-yl)biphenyl-4-carboxamide], the IC50 was < 100 nM.

With `COCCCn1c([C@@H]2CCCN(C(=O)C[C@H](N)Cc3ccc(-c4ccc(C(=O)N5CC[C@@H](O)C5)cc4)cc3)C2)nc2ccccc21` [Compound 185, (R)-3-amino-4-(4′-((R)-3-hydroxypyrrolidine-1-carbonyl)biphenyl-4-yl)-1-((R)-3-(1-(3-methoxypropyl)-1H-benzo[d]imidazol-2-yl)piperidin-1-yl)butan-1-one], the IC50 was < 100 nM. Then `COCCCn1c([C@@H]2CCCN(C(=O)C[C@H](N)Cc3ccc(-c4ccc(C(=O)N[C@H](C)CO)cc4)cc3)C2)nc2ccccc21` [Compound 186, 4′-((R)-2-amino-4-((R)-3-(1-(3-methoxypropyl)-1H-benzo[d]imidazol-2-yl)piperidin-1-yl)-4-oxobutyl)-N-((R)-1-hydroxypropan-2-yl)biphenyl-4-carboxamide], with < 100 nM. Consider `COCCCn1c([C@@H]2CCCN(C(=O)C[C@H](N)Cc3ccc(-c4ccc(C(=O)N[C@@H](C)CO)cc4)cc3)C2)nc2ccccc21` [Compound 187, 4′-((R)-2-amino-4-((R)-3-(1-(3-methoxypropyl)-1H-benzo[d]imidazol-2-yl)piperidin-1-yl)-4-oxobutyl)-N-((S)-1-hydroxypropan-2-yl)biphenyl-4-carboxamide], for which the IC50 was < 100 nM. With `COCCCn1c([C@@H]2CCCN(C(=O)C[C@H](N)Cc3ccc(-c4ccc(C(=O)NCC(C)(C)O)cc4)cc3)C2)nc2ccccc21` [Compound 188, 4′-((R)-2-amino-4-((R)-3-(1-(3-methoxypropyl)-1H-benzo[d]imidazol-2-yl)piperidin-1-yl)-4-oxobutyl)-N-(2-hydroxy-2-methylpropyl)biphenyl-4-carboxamide], the IC50 is < 100 nM. Take `COCCCn1c([C@@H]2CCCN(C(=O)C[C@H](N)Cc3ccc(-c4ccc(C(=O)N5CCNC(=O)C5)cc4)cc3)C2)nc2ccccc21` [Compound 189, 4-(4′-((R)-2-amino-4-((R)-3-(1-(3-methoxypropyl)-1H-benzo[d]imidazol-2-yl)piperidin-1-yl)-4-oxobutyl)biphenylcarbonyl)piperazin-2-one]: the IC50 was < 100 nM.

Consider `COCCCn1c([C@@H]2CCCN(C(=O)C[C@H](N)Cc3ccc(-c4ccc(C(=O)NCCO)c(F)c4)cc3)C2)nc2ccccc21` [Compound 190, 4′-((R)-2-amino-4-((R)-3-(1-(3-methoxypropyl)-1H-benzo[d]imidazol-2-yl)piperidin-1-yl)-4-oxobutyl)-3-fluoro-N-(2-hydroxyethyl)biphenyl-4-carboxamide], for which the IC50 is < 100 nM.

As for `COCCCn1c([C@@H]2CCCN(C(=O)C[C@H](N)Cc3ccc(-c4ccc(C(=O)NCCOC)c(F)c4)cc3)C2)nc2ccccc21` [Compound 191, 4′-((R)-2-Amino-4-((R)-3-(1-(3-methoxypropyl)-1H-benzoldlimidazol-2-yl)piperidin-1-yl)-4-oxobutyl)-3-fluoro-N-(2-methoxyethyl)biphenyl-4-carboxamide], the IC50 is < 100 nM.

Values taken from patent publication US8138168B1 (Takeda Pharmaceutical Company Limited, priority 2007, dated 2012).
